In the supplement of paper PMC7214452:
Where a name gives a salt, the structure may show the parent alone.

What was measured:
Assay in all cases: normalized area under the dose-response curve (viability relative to DMSO control) (fraction); higher = less sensitive (more viable cells)
Details in all cases: exposure time not given
[1] = test system: SU-DHL1 (cancer type: TCL)
Description: (§1)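 25 myeloma and 15 non-Hodgkin lymphoma cell lines were exposed to each of 76 drugs as 7-point log dilutions (0.01 nM–10 µM) in duplicate. Viability was read with CellTiter-Glo and normalised to DMSO (0.1%) and staurosporine (10 µM) plate controls. Normalised AUC was calculated by the trapezoidal method relative to the negative control.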

[2] = test system: KMS12PE (cancer type: MM)
Description: as §1

[3] = test system: RPMI 8226 (cancer type: MM)
Description: as §1

OPM2 (cancer type: MM) = test system: OPM2 (cancer type: MM)
Description: as §1

[4] = test system: SU-DHL2 (cancer type: DLBCL)
Description: as §1

KMS11 (cancer type: MM) = test system: KMS11 (cancer type: MM)
Description: as §1

[5] = test system: OCI-MY5/CRBN (cancer type: MM)
Description: as §1

[6] = test system: Karpas-299 (cancer type: TCL)
Description: as §1

[7] = test system: KMS28BM (cancer type: MM)
Description: as §1

[8] = test system: JVM2 (cancer type: Mantle)
Description: as §1

SKMM2 (cancer type: MM) = test system: SKMM2 (cancer type: MM)
Description: as §1

[9] = test system: OCI-MY5 (cancer type: MM)
Description: as §1

KMS18 (cancer type: MM) = test system: KMS18 (cancer type: MM)
Description: as §1

[10] = test system: NCI-H929 (cancer type: MM)
Description: as §1

MM1.R (cancer type: MM) = test system: MM1.R (cancer type: MM)
Description: as §1

MM1.S (cancer type: MM) = test system: MM1.S (cancer type: MM)
Description: as §1

Se-Ax (cancer type: TCL) = test system: Se-Ax (cancer type: TCL)
Description: as §1

[11] = test system: SU-DHL6 (cancer type: DLBCL)
Description: as §1

[12] = test system: HuT 78 (cancer type: TCL)
Description: as §1

[13] = test system: OCI-MY7 (cancer type: MM)
Description: as §1

EJM (cancer type: MM) = test system: EJM (cancer type: MM)
Description: as §1

My-La (cancer type: TCL) = test system: My-La (cancer type: TCL)
Description: as §1

FR4 (cancer type: MM) = test system: FR4 (cancer type: MM)
Description: as §1

U266 (cancer type: MM) = test system: U266 (cancer type: MM)
Description: as §1

LP1 (cancer type: MM) = test system: LP1 (cancer type: MM)
Description: as §1

KMS26 (cancer type: MM) = test system: KMS26 (cancer type: MM)
Description: as §1

L363 (cancer type: MM) = test system: L363 (cancer type: MM)
Description: as §1

AMO1 (cancer type: MM) = test system: AMO1 (cancer type: MM)
Description: as §1

JJN3 (cancer type: MM) = test system: JJN3 (cancer type: MM)
Description: as §1

KMS34 (cancer type: MM) = test system: KMS34 (cancer type: MM)
Description: as §1

[14] = test system: OCI-LY3 (cancer type: DLBCL)
Description: as §1

[15] = test system: SR-786 (cancer type: TCL)
Description: as §1

[16] = test system: Granta-519 (cancer type: Mantle)
Description: as §1

[17] = test system: OCI-MY5/Vec (cancer type: MM)
Description: as §1

[18] = test system: KMS28PE (cancer type: MM)
Description: as §1

[19] = test system: Mino (cancer type: Mantle)
Description: as §1

[20] = test system: OCI-LY19 (cancer type: DLBCL)
Description: as §1

XG2 (cancer type: MM) = test system: XG2 (cancer type: MM)
Description: as §1

[21] = test system: OCI-LY1 (cancer type: DLBCL)
Description: as §1

[22] = test system: JeKo-1 (cancer type: Mantle)
Description: as §1

Structure (SMILES)	normalized area under the dose-response curve [1]	normalized area under the dose-response curve [2]	normalized area under the dose-response curve [3]	normalized area under the dose-response curve (OPM2 (cancer type: MM))	normalized area under the dose-response curve [4]	normalized area under the dose-response curve (KMS11 (cancer type: MM))	normalized area under the dose-response curve [5]	normalized area under the dose-response curve [6]	normalized area under the dose-response curve [7]	normalized area under the dose-response curve [8]	normalized area under the dose-response curve (SKMM2 (cancer type: MM))	normalized area under the dose-response curve [9]	normalized area under the dose-response curve (KMS18 (cancer type: MM))	normalized area under the dose-response curve [10]	normalized area under the dose-response curve (MM1.R (cancer type: MM))	normalized area under the dose-response curve (MM1.S (cancer type: MM))	normalized area under the dose-response curve (Se-Ax (cancer type: TCL))	normalized area under the dose-response curve [11]	normalized area under the dose-response curve [12]	normalized area under the dose-response curve [13]	normalized area under the dose-response curve (EJM (cancer type: MM))	normalized area under the dose-response curve (My-La (cancer type: TCL))	normalized area under the dose-response curve (FR4 (cancer type: MM))	normalized area under the dose-response curve (U266 (cancer type: MM))	normalized area under the dose-response curve (LP1 (cancer type: MM))	normalized area under the dose-response curve (KMS26 (cancer type: MM))	normalized area under the dose-response curve (L363 (cancer type: MM))	normalized area under the dose-response curve (AMO1 (cancer type: MM))	normalized area under the dose-response curve (JJN3 (cancer type: MM))	normalized area under the dose-response curve (KMS34 (cancer type: MM))	normalized area under the dose-response curve [14]	normalized area under the dose-response curve [15]	normalized area under the dose-response curve [16]	normalized area under the dose-response curve [17]	normalized area under the dose-response curve [18]	normalized area under the dose-response curve [19]	normalized area under the dose-response curve [20]	normalized area under the dose-response curve (XG2 (cancer type: MM))	normalized area under the dose-response curve [21]	normalized area under the dose-response curve [22]
Nc1ncn([C@H]2C[C@H](O)[C@@H](CO)O2)c(=O)n1 [Decitabine]	0.962	0.9	0.914	0.835	0.94	0.871	0.888	0.912	0.955	0.879	0.933	0.773	0.97	0.89	0.85	0.89	0.832	0.844	0.958	0.91	0.916	0.957	0.937	0.804	0.88	0.897	0.82	0.836	0.912	0.702	0.883	0.854	0.978	0.93	0.778	0.818	0.84	0.896	0.912	0.644
C[C@@H]1C[C@H]2[C@@H]3CCC4=CC(=O)C=C[C@]4(C)[C@@]3(F)[C@@H](O)C[C@]2(C)[C@@]1(O)C(=O)CO [Dexamethasone]	0.907	0.96	0.777	0.826	0.686	0.805	0.928	0.852	0.904	0.799	0.648	0.725	0.788	0.79	0.94	0.66	0.759	0.8	0.873	0.76	0.777	0.883	0.933	0.818	0.613	0.773	0.756	0.762	0.983	0.487	0.963	0.972	0.925	0.814	0.735	0.86	0.947	0.863	0.924	0.875
CCc1cnn2c(NCc3ccc[n+]([O-])c3)cc(N3CCCC[C@H]3CCO)nc12 [Dinaciclib]	0.0533	0.04	0.0467	0.0465	0.393	0.084	0.0017	0.0458	0.0793	0.259	0.628	0.0272	0.0366	0.04	0.03	0.03	0.31	0.667	0.0209	0.02	0.0534	0.582	0.0504	0.0357	0.0551	0.0286	0.0142	0.03	0.0469	0.124	0.148	0.0218	0.625	0.0029	0.169	0.392	0.414	0.0928	0.0794	0.0614
Cc1ccc(-n2nc(C(C)(C)C)cc2NC(=O)Nc2ccc(OCCN3CCOCC3)c3ccccc23)cc1 [Doramapimod]	0.737	0.89	0.917	0.834	0.901	0.782	0.961	0.916	0.887	0.687	0.969	0.693	0.926	0.87	0.88	0.8	0.736	0.858	0.812	0.89	0.872	0.907	0.932	0.634	0.87	0.787	0.801	0.842	0.726	0.737	0.9	0.919	0.938	0.916	0.842	0.97	0.645	0.806	0.999	1.04
CC(C)(O)CNc1nc(Nc2ccnc(C(F)(F)F)c2)nc(-c2cccc(C(F)(F)F)n2)n1 [Enasidenib (Agios ag-221)]	0.888	0.9	0.92	0.749	0.918	0.95	0.903	0.9	0.894	0.787	0.905	0.723	0.772	0.92	0.81	0.8	0.837	0.92	0.86	0.81	0.865	0.947	0.944	0.914	0.772	0.887	0.802	0.864	0.822	0.853	1	0.908	0.975	0.847	0.819	0.877	0.972	0.899	0.957	0.881
C#Cc1cccc(Nc2ncnc3cc(OCCOC)c(OCCOC)cc23)c1 [Erlotinib hydrochloride]	0.87	0.8	0.903	0.86	0.839	0.85	0.878	0.907	0.847	0.665	0.922	0.796	0.84	0.88	0.84	0.86	0.84	0.905	0.756	0.84	0.91	0.972	0.877	0.946	0.869	0.928	0.814	0.897	0.878	0.805	0.897	0.962	0.938	0.861	0.871	0.95	0.864	0.888	0.888	0.886
CO[C@H]1C[C@@H]2CC[C@@H](C)[C@@](O)(O2)C(=O)C(=O)N2CCCC[C@H]2C(=O)O[C@H]([C@H](C)C[C@@H]2CC[C@@H](OCCO)[C@H](OC)C2)CC(=O)[C@H](C)/C=C(\C)[C@@H](O)[C@@H](OC)C(=O)[C@H](C)C[C@H](C)/C=C/C=C/C=C/1C [Everolimus]	0.639	0.72	0.769	0.593	0.566	0.674	0.829	0.682	0.813	0.64	0.802	0.676	0.617	0.71	0.63	0.63	0.545	0.685	0.699	0.83	0.661	0.711	0.758	0.606	0.831	0.76	0.627	0.637	0.656	0.557	0.785	0.729	0.783	0.819	0.699	0.72	0.592	0.505	0.665	0.876
Nc1nc(F)nc2c1ncn2[C@@H]1O[C@H](COP(=O)(O)O)[C@@H](O)[C@@H]1O [Fludarabine phosphate]	0.888	0.94	0.767	0.859	0.918	0.746	0.972	0.885	0.834	0.855	0.88	0.788	0.894	0.9	0.92	0.87	0.798	0.927	0.911	0.95	0.882	0.879	0.858	0.812	0.938	0.863	0.781	0.813	0.934	0.785	0.962	0.914	0.949	1	0.767	0.844	1.02	0.857	0.866	0.912
